Test results as given in US9006241B2, “Pyrimidine derivatives” (Noviga Research AB, priority 2011, dated 2015).

What was measured:
Assay type in all cases: cell-based
[1] = test system: CCRF-CEM cancer cells - leukemia; assay: Fluorometric Microculture Cytotoxicity Assay (FMCA), CCRF-CEM; details: Homo sapiens, 72 h incubation
Text: (§1) The Fluorometric Microculture Cytotoxicity Assay, FMCA (Larsson, R., et al.; Anticancer Res, 1989, 9, 1111-1119), is a three day non-clonogenic microplate-based cell viability assay used for measurement of the cytotoxic and/or cytostatic effect of compounds in vitro (Lindhagen, E. et al.; Nat. Protoc., 2008, 3, 1364-1369). FMCA represents a valuable method to measure cytotoxicity in a number of cell types, both cell lines and primary cells from patients (Larsson, R., et al.; Int. J. Cancer, 1992, 50, 177-185; Fridborg, H., et al.; Eur. J. Cancer, 1999. 35, 424-432; Dhar, S., et al.; Br. J. Cancer, 1996, 74, 888-896).
(§2) FMCA is based on the principle that fluorescein diacetate (FDA) is converted to the fluorescent probe fluorescein by esterases in the plasma membranes of living cells. For experiments, 96 or 384-well microplates are prepared with compounds and stored at −70° C. until use. Cells are then seeded into the drug-prepared plates and placed in an incubator for 72 h. On the last day of incubation, the plates are washed and a buffer containing FDA is added and incubated with the cells for 45 minutes. Finally the fluorescence per well is measured in a fluorometer and a Survival Index % (SI) for each compound-treated well is calculated with the equation: Compound-treated cells minus blank divided by control cells minus blank. A high SI-value indicates a large percentage of living cells and vice versa.
In subsequent experiments, compounds were tested, along with a number of approved cancer drugs (dasatinib, pazopanib, sorafenib, and sunitinib) as described above. Initially, the acute lymphoblastic leukemia cell line CCRF-CEM was used throughout. In the assay plates, medium was added to six empty wells (blank wells) and wells were filled with PBS and cell suspension and served as control wells. SI-values were then calculated for each compound-treated well as described above. All experiments were conducted twice and a new batch of plates was prepared for each experiment.
(§3) For dose-response experiments, 384-well plates were prepared as follows:
(§4) Compounds of the invention as well comparative kinase inhibitors sorafenib sunitinib, dasatinib, pazopanib and a reference compound disclosed in WO 2009/071535 (compound #107) were diluted with PBS to a concentration ten-times higher than the desired starting concentration. Then, a Biomek 2000 liquid handling system was employed to serially dilute the compounds in a deep-well 384-well plate. From this plate, assay plates containing 5 μl compound per well were prepared with the Biomek 2000. Certain compounds precipitated when diluted with PBS, and these compounds were therefore prepared in a 96-well plate manually as described above using culture medium RPMI 1640 instead of PBS.
(§5) The compounds were also tested at five concentrations, with five times serial dilution on the following cell types: CCRF-CEM, hTERT-RPE1 (normal retinal epithelial cells), hRPTEpiC (normal renal cells), and peripheral blood mononuclear cells (PBMC). Each experiment was performed three times, except for PBMC and hRPTEpiC, which were performed twice. SI-values were calculated, graphs were plotted using GraphPadPrism 5.0 (GraphPad Software Inc. La Jolla, Calif.) and IC50-values for each cell type and compound were determined from the curves.

[2] = test system: MDA-MB-231 (breast cancer); assay: FMCA, MDA-MB-231; details: Homo sapiens, MDA-MB-231 breast cancer cells
Text: as §1, §2, §3, §4, §5
(§6) The compounds of the invention were also tested on further cancer cell lines related to breast cancer (MDA-MB-231; see e.g. Cailleau, R., et al.; J. Natl. Cancer Inst., 1974, 53, 661-674), teniposide-resistant leukemia (CEM/VM1 see e.g. Danks, M., et al.; Cancer Res., 1987, 47, 1297-1301), leukemia (HL-60; see e.g. Collins, S., et al.; Nature, 1977, 270, 347-349), doxorubicin-resistant lung cancer (H69AR; see e.g. Mirski, S., et al.; Cancer Res., 1987, 47, 2594-2598), myeloma (RPMI 8226; see e.g. Matsuoka, Y., et al.; Proc. Soc. Exp. Biol. Med., 1967, 125, 1246-1250), doxorubicin-resistant myeloma (8226/Dox40; see e.g. Dalton, W., et al.; Blood, 1989, 15, 747-752), lymphoma (U-937, see e.g. Sundström, C., et al.; Int. […]

[3] = test system: CEM/VM1 (teniposide-resistant leukemia); assay: FMCA, CEM/VM1; details: Homo sapiens, CEM/VM1 teniposide-resistant leukemia cells
Text: as §1, §2, §3, §4, §5
as §6, with “Int. J. Cancer, 1976, 17, 565-577), vincristin-resistant lymphoma (U-937-vcr; see e.g. Botling, J., et al.; Int. J. Cancer, 1994, 58, 269-274), ovarian cancer (A2780; see e.g. Hamilton, T., et al.; Semin. Oncol., 1984, 11, 285-298), doxorubicin-resistant ovarian cancer (A2780/Adr), cisplatin-resistant ovarian cancer (A2780/Cis; see e.g. Behrens, B., et al. Cancer Res. 1987, 47, 414-418), pancreatic cancer (PANC-1, BxPC-3, and MIA PaCa-2; see e.g. Lieber, M., et al.; Int. J. Cancer, 1975, 15, 741-747; Loor, R., et al.; Clin. Lab.” for “Int.”

[4] = test system: HL-60 (leukemia); assay: FMCA, HL-60; details: Homo sapiens, HL-60 leukemia cells
Text: as §1, §2, §3, §4, §5, §6

[5] = test system: H69AR (doxorubicin-resistant lung cancer); assay: FMCA, H69AR; details: Homo sapiens, H69AR doxorubicin-resistant lung cancer cells
Text: as §1, §2, §3, §4, §5
as §6, with “Int. J. Cancer, 1976, 17, 565-577), vincristin-resistant lymphoma (U-937-vcr; see e.g. Botling, J., et al.; Int. J. Cancer, 1994, 58, 269-274), ovarian cancer (A2780; see e.g. Hamilton, T., et al.; Semin. Oncol., 1984, 11, 285-298), doxorubicin-resistant ovarian cancer (A2780/Adr), cisplatin-resistant ovarian cancer (A2780/Cis; see e.g. Behrens, B., et al. Cancer Res. 1987, 47, 414-418), pancreatic cancer (PANC-1, BxPC-3, and MIA PaCa-2; see e.g. Lieber, M., et al.; Int. J. Cancer, 1975, 15, 741-747; Loor, R., et al.; Clin. Lab.” for “Int.”

[6] = test system: RPMI 8226 (myeloma); assay: FMCA, RPMI 8226; details: Homo sapiens, RPMI 8226 myeloma cells
Text: as §1, §2, §3, §4, §5
as §6, with “Int. J. Cancer, 1976, 17, 565-577), vincristin-resistant lymphoma (U-937-vcr; see e.g. Botling, J., et al.; Int. J. Cancer, 1994, 58, 269-274), ovarian cancer (A2780; see e.g. Hamilton, T., et al.; Semin. Oncol., 1984, 11, 285-298), doxorubicin-resistant ovarian cancer (A2780/Adr), cisplatin-resistant ovarian cancer (A2780/Cis; see e.g. Behrens, B., et al. Cancer Res. 1987, 47, 414-418), pancreatic cancer (PANC-1, BxPC-3, and MIA PaCa-2; see e.g. Lieber, M., et al.; Int. J. Cancer, 1975, 15, 741-747; Loor, R., et al.; Clin. Lab.” for “Int.”

[7] = test system: 8226/Dox40 (doxorubicin-resistant myeloma); assay: FMCA, 8226/Dox40; details: 8226/Dox40 doxorubicin-resistant myeloma cells
Text: as §1, §2, §3, §4, §5
as §6, with “Int. J. Cancer, 1976, 17, 565-577), vincristin-resistant lymphoma (U-937-vcr; see e.g. Botling, J., et al.; Int. J. Cancer, 1994, 58, 269-274), ovarian cancer (A2780; see e.g. Hamilton, T., et al.; Semin. Oncol., 1984, 11, 285-298), doxorubicin-resistant ovarian cancer (A2780/Adr), cisplatin-resistant ovarian cancer (A2780/Cis; see e.g. Behrens, B., et al. Cancer Res. 1987, 47, 414-418), pancreatic cancer (PANC-1, BxPC-3, and MIA PaCa-2; see e.g. Lieber, M., et al.; Int. J. Cancer, 1975, 15, 741-747; Loor, R., et al.; Clin. Lab.” for “Int.”

[8] = test system: U-937 (lymphoma); assay: FMCA, U-937; details: Homo sapiens, U-937 lymphoma cells
Text: as §1, §2, §3, §4, §5
as §6, with “Int. J. Cancer, 1976, 17, 565-577), vincristin-resistant lymphoma (U-937-vcr; see e.g. Botling, J., et al.; Int. J. Cancer, 1994, 58, 269-274), ovarian cancer (A2780; see e.g. Hamilton, T., et al.; Semin. Oncol., 1984, 11, 285-298), doxorubicin-resistant ovarian cancer (A2780/Adr), cisplatin-resistant ovarian cancer (A2780/Cis; see e.g. Behrens, B., et al. Cancer Res. 1987, 47, 414-418), pancreatic cancer (PANC-1, BxPC-3, and MIA PaCa-2; see e.g. Lieber, M., et al.; Int. J. Cancer, 1975, 15, 741-747; Loor, R., et al.; Clin. Lab.” for “Int.”

[9] = test system: U-937-vcr (vincristin-resistant lymphoma); assay: FMCA, U-937-vcr; details: U-937-vcr vincristin-resistant lymphoma cells
Text: as §1, §2, §3, §4, §5
as §6, with “Int. J. Cancer, 1976, 17, 565-577), vincristin-resistant lymphoma (U-937-vcr; see e.g. Botling, J., et al.; Int. J. Cancer, 1994, 58, 269-274), ovarian cancer (A2780; see e.g. Hamilton, T., et al.; Semin. Oncol., 1984, 11, 285-298), doxorubicin-resistant ovarian cancer (A2780/Adr), cisplatin-resistant ovarian cancer (A2780/Cis; see e.g. Behrens, B., et al. Cancer Res. 1987, 47, 414-418), pancreatic cancer (PANC-1, BxPC-3, and MIA PaCa-2; see e.g. Lieber, M., et al.; Int. J. Cancer, 1975, 15, 741-747; Loor, R., et al.; Clin. Lab.” for “Int.”

[10] = test system: A2780 (ovarian cancer); assay: FMCA, A2780; details: Homo sapiens, A2780 ovarian cancer cells
Text: as §1, §2, §3, §4, §5
as §6, with “Int. J. Cancer, 1976, 17, 565-577), vincristin-resistant lymphoma (U-937-vcr; see e.g. Botling, J., et al.; Int. J. Cancer, 1994, 58, 269-274), ovarian cancer (A2780; see e.g. Hamilton, T., et al.; Semin. Oncol., 1984, 11, 285-298), doxorubicin-resistant ovarian cancer (A2780/Adr), cisplatin-resistant ovarian cancer (A2780/Cis; see e.g. Behrens, B., et al. Cancer Res. 1987, 47, 414-418), pancreatic cancer (PANC-1, BxPC-3, and MIA PaCa-2; see e.g. Lieber, M., et al.; Int. J. Cancer, 1975, 15, 741-747; Loor, R., et al.; Clin. Lab.” for “Int.”

[11] = test system: A2780/Adr (doxorubicin-resistant ovarian cancer); assay: FMCA, A2780/Adr; details: A2780/Adr doxorubicin-resistant ovarian cancer cells
Text: as §1, §2, §3, §4, §5
as §6, with “Int. J. Cancer, 1976, 17, 565-577), vincristin-resistant lymphoma (U-937-vcr; see e.g. Botling, J., et al.; Int. J. Cancer, 1994, 58, 269-274), ovarian cancer (A2780; see e.g. Hamilton, T., et al.; Semin. Oncol., 1984, 11, 285-298), doxorubicin-resistant ovarian cancer (A2780/Adr), cisplatin-resistant ovarian cancer (A2780/Cis; see e.g. Behrens, B., et al. Cancer Res. 1987, 47, 414-418), pancreatic cancer (PANC-1, BxPC-3, and MIA PaCa-2; see e.g. Lieber, M., et al.; Int. J. Cancer, 1975, 15, 741-747; Loor, R., et al.; Clin. Lab.” for “Int.”

[12] = test system: A2780/Cis (cisplatin-resistant ovarian cancer); assay: FMCA, A2780/Cis; details: A2780cis, A2780/Cis cisplatin-resistant ovarian cancer cells
Text: as §1, §2, §3, §4, §5
as §6, with “Int. J. Cancer, 1976, 17, 565-577), vincristin-resistant lymphoma (U-937-vcr; see e.g. Botling, J., et al.; Int. J. Cancer, 1994, 58, 269-274), ovarian cancer (A2780; see e.g. Hamilton, T., et al.; Semin. Oncol., 1984, 11, 285-298), doxorubicin-resistant ovarian cancer (A2780/Adr), cisplatin-resistant ovarian cancer (A2780/Cis; see e.g. Behrens, B., et al. Cancer Res. 1987, 47, 414-418), pancreatic cancer (PANC-1, BxPC-3, and MIA PaCa-2; see e.g. Lieber, M., et al.; Int. J. Cancer, 1975, 15, 741-747; Loor, R., et al.; Clin. Lab.” for “Int.”

[13] = test system: BxPC-3 (pancreatic cancer); assay: FMCA, BxPC-3; details: Homo sapiens, BxPC-3 pancreatic cancer cells
Text: as §1, §2, §3, §4, §5, §6

[14] = test system: PANC-1 (pancreatic cancer); assay: FMCA, PANC-1; details: Homo sapiens, PANC-1 pancreatic cancer cells
Text: as §1, §2, §3, §4, §5, §6

[15] = test system: MIA PaCa-2 (pancreatic cancer); assay: FMCA, MIA PaCa-2; details: Homo sapiens, MIA PaCa-2 pancreatic cancer cells
Text: as §1, §2, §3, §4, §5, §6

[16] = test system: PC-3 (prostate cancer); assay: FMCA, PC-3; details: PC-3 prostate cancer cells
Text: as §1, §2, §3, §4, §5, §6

COc1ccc2[nH]cc(CCNc3nccc(Nc4ccc5[nH]c(C)nc5c4)n3)c2c1 [Example 19, N^2-[2-(5-methoxy-1H-indol-3-yl)ethyl]-N^4-(2-methyl-1H-benzo[d]imidazol-5-yl)pyrimidine-2,4-diamine]
EC50 [1]: 32 nM | EC50 [2]: 1900 nM | EC50 [3]: 62 nM | EC50 [4]: 92 nM | EC50 [5]: 940 nM | EC50 [6]: 7800 nM | EC50 [7]: 30000 nM | EC50 [8]: 100 nM | EC50 [9]: 780 nM | EC50 [10]: 130 nM | EC50 [11]: 2000 nM | EC50 [12]: 230 nM | EC50 [13]: 910 nM | EC50 [14]: 5200 nM | EC50 [15]: 31 nM | EC50 [16]: 2100 nM
